Measured values as given in patent US20030166483A1, “Use of 3-iodine-2-propinyl-carbamates as antimicrobial active agent” (priority 2003, published 2003).

Key:
Format in all cases: cell-based
[1] = test system: Epicoccum nigrum, self-isolate; assay: Fungistatic activity by the inhibition test; conditions: 7 days at 25° C.; for inhibiting effect evaluation: impregnated cotton specimens
Method: (§1) Candida albicans, ATCC 10231 (precultured on CaSo agar, 4 d/25° C.), Aspergillus niger, ATCC 6275 (precultured on malt agar, 8d/25° C.), Trichophyton mentagrophytes, ATCC 9533 (precultured on malt agar, 8d/25° C.), Cladosporium cladosporioides, DSM 62121 (precultured on malt agar, 8d/25° C.), Epicoccum nigrum, self-isolate (precultured on malt agar, 8d/25°).
(§2) The inocula were obtained by floating off the preculture plates with 0.05% Tween®80 and had the following germ contents:
(§3) 1×1 cm prewashed and autoclaved test specimens of standard cotton cloth to DIN 53919 (WfK-Testgewebe GmbH, Adlerstr. 42, Krefeld) were placed in the test solutions for 15 minutes, removed under sterile conditions and dried for 14 h at room temperature. 0.1 ml inoculation suspensions of the test fungi mentioned above were inoculated into malt agar in a petri dish and, after the agar had solidified, 0.1 ml was spread over the agar surface with a spatula.
(§4) The test specimens impregnated with the test solutions were then placed on the agar surface under sterile conditions and the dishes were incubated for 7 days at 25° C. The inhibiting effect was then evaluated to the following scheme: […]

[2] = test system: Cladosporium cladosporioides, DSM 62121; assay: Fungistatic activity by the inhibition test; conditions: 7 days at 25° C.; for inhibiting effect evaluation: impregnated cotton specimens
Method: as §1, §2, §3, §4

[3] = test system: Aspergillus niger, ATCC 6275; assay: Fungistatic activity by the inhibition test; conditions: 7 days at 25° C.; for inhibiting effect evaluation: impregnated cotton specimens
Method: as §1, §2, §3, §4

[4] = test system: Candida albicans, ATCC 10231; assay: Fungistatic activity by the inhibition test; conditions: 7 days at 25° C.; for inhibiting effect evaluation: impregnated cotton specimens
Method: as §1, §2, §3, §4

[5] = test system: Trichophyton mentagrophytes, ATCC 9533; assay: Fungistatic activity by the inhibition test; conditions: 7 days at 25° C.; for inhibiting effect evaluation: impregnated cotton specimens
Method: as §1, §2, §3, §4

[6] = test system: Epicoccum nigrum, self-isolate; assay: Fungicidal activity by the DGHM germ carrier test; set-up: key: +: living culture; −: dead culture
Method: as §1, §2
(§5) The test was carried out under the Richtlinien für die Prüfung und Bewertung chemischer Desinfektionsverfahren (Guidelines for the Testing and Evaluation of Chemical Disinfection Processes) of the Deutsche Gesellschaft für Hygiene und Mikrobiologie (DGHM), Gustav Fischer Verlag, 1981:
(§6) 16 prewashed and autoclaved test specimens were placed in the above-mentioned inoculation suspensions of the test fungi and left therein for 15 minutes during which they were turned over several times. The test specimens thus contaminated were then transferred to empty Petri dishes where 10 ml of the test solutions were poured over them. After contact times of 60 and 120 minutes at 20° C., two of the test specimens were removed, briefly transferred to 10 ml of DGHM inactivator solution and then inoculated onto CaSo plates (Candida) or malt agar plates (other test fungi). Incubation lasted 7 days at 25° C. and was followed by qualitative evaluation, i.e. growth yes (+) or no (−).

[7] = test system: Cladosporium cladosporioides, DSM 62121; assay: Fungicidal activity by the DGHM germ carrier test; set-up: key: +: living culture; −: dead culture
Method: as §1, §2, §5, §6

[8] = test system: Aspergillus niger, ATCC 6275; assay: Fungicidal activity by the DGHM germ carrier test; set-up: key: +: living culture; −: dead culture
Method: as §1, §2, §5, §6

[9] = test system: Candida albicans, ATCC 10231; assay: Fungicidal activity by the DGHM germ carrier test; set-up: key: +: living culture; −: dead culture
Method: as §1, §2, §5, §6

[10] = test system: Trichophyton mentagrophytes, ATCC 9533; assay: Fungicidal activity by the DGHM germ carrier test; set-up: key: +: living culture; −: dead culture
Method: as §1, §2, §5, §6

[11] = test system: dermatophytes, fungi producing mildew spots and material-damaging fungi; assay: Fungistatic activity, overall result; conditions: by comparison with the reference preparation
Method: as §3, §4

[12] = 100 ppm, contact time 60 mins. at 20° C.
[13] = 100 ppm, contact time 120 mins. at 20° C.
[14] = 500 ppm, contact time 60 mins. at 20° C.
[15] = 500 ppm, contact time 120 mins. at 20° C.
[16] = 750 ppm, contact time 60 mins. at 20° C.
[17] = 750 ppm, contact time 120 mins. at 20° C.

## CCCCNC(=O)OCC#CI [IPBC, 3-Iodo-2-propinyl butyl carbamate]
[1]; 100 ppm test solution
  inhibition zone: 5-9 mm
  inhibiting effect evaluation: 0/0
[1]; 500 ppm test solution
  inhibition zone: 11-14 mm
  inhibiting effect evaluation: 0/0
[1]; 750 ppm test solution
  inhibition zone: 12-15 mm
  inhibiting effect evaluation: 0/0
[2]; 100 ppm test solution
  inhibition zone: 1 mm
  inhibiting effect evaluation: 0/0
[2]; 500 ppm test solution
  inhibition zone: 5-7 mm
  inhibiting effect evaluation: 0/0
[2]; 750 ppm test solution
  inhibition zone: 5-7 mm
  inhibiting effect evaluation: 0/0
[3]; 100 ppm test solution
  inhibition zone: 3-5 mm
  inhibiting effect evaluation: 0/0
[3]; 500 ppm test solution
  inhibition zone: 9-11 mm
  inhibiting effect evaluation: 0/0
[3]; 750 ppm test solution
  inhibition zone: 10-12 mm
  inhibiting effect evaluation: 0/0
[4]; 100 ppm test solution
  inhibiting effect evaluation: 1/1
[4]; 500 ppm test solution
  inhibition zone: 3-5 mm
  inhibiting effect evaluation: 0/0
[4]; 750 ppm test solution
  inhibition zone: 3-5 mm
  inhibiting effect evaluation: 0/0
[5]; 100 ppm test solution
  inhibition zone: 3-6 mm
  inhibiting effect evaluation: 0/0
[5]; 500 ppm test solution
  inhibition zone: 12-15 mm
  inhibiting effect evaluation: 0/0
[5]; 750 ppm test solution
  inhibition zone: 15-18 mm
  inhibiting effect evaluation: 0/0
[6]; [12]
  growth after contact (fungicidal activity): 60 mins. +
[6]; [13]
  growth after contact (fungicidal activity): 120 mins. +
[6]; [14]
  growth after contact (fungicidal activity): 60 mins. −
[6]; [15]
  growth after contact (fungicidal activity): 120 mins. −
[6]; [16]
  growth after contact (fungicidal activity): 60 mins. −
[6]; [17]
  growth after contact (fungicidal activity): 120 mins. −
[7]; [12]
  growth after contact (fungicidal activity): 60 mins. +
[7]; [13]
  growth after contact (fungicidal activity): 120 mins. +
[7]; [14]
  growth after contact (fungicidal activity): 60 mins. −
[7]; [15]
  growth after contact (fungicidal activity): 120 mins. −
[7]; [16]
  growth after contact (fungicidal activity): 60 mins. −
[7]; [17]
  growth after contact (fungicidal activity): 120 mins. −
[8]; [12]
  growth after contact (fungicidal activity): 60 mins. +
[8]; [13]
  growth after contact (fungicidal activity): 120 mins. +
[8]; [14]
  growth after contact (fungicidal activity): 60 mins. +
[8]; [15]
  growth after contact (fungicidal activity): 120 mins. +
[8]; [16]
  growth after contact (fungicidal activity): 60 mins. +
[8]; [17]
  growth after contact (fungicidal activity): 120 mins. +
[9]; [12]
  growth after contact (fungicidal activity): 60 mins. +
[9]; [13]
  growth after contact (fungicidal activity): 120 mins. +
[9]; [14]
  growth after contact (fungicidal activity): 60 mins. +
[9]; [15]
  growth after contact (fungicidal activity): 120 mins. +
[9]; [16]
  growth after contact (fungicidal activity): 60 mins. +
[9]; [17]
  growth after contact (fungicidal activity): 120 mins. +
[10]; [12]
  growth after contact (fungicidal activity): 60 mins. +
[10]; [13]
  growth after contact (fungicidal activity): 120 mins. +
[10]; [14]
  growth after contact (fungicidal activity): 60 mins. −
[10]; [15]
  growth after contact (fungicidal activity): 120 mins. −
[10]; [16]
  growth after contact (fungicidal activity): 60 mins. −
[10]; [17]
  growth after contact (fungicidal activity): 120 mins. −
[11]
  fungistatic activity (overall): very good fungistatic activity
